Measurements: ChEMBL document CHEMBL4414597, “Polyketides from Marine-Derived Aspergillus porosus: Challenges and Opportunities for Determining Absolute Configuration” (J Nat Prod, 2019)
Active and inactive are the calls of the source. The calls are words filed in the database; no cut-off is given here.

Legend:
Pseudomonas aeruginosa [1] = assay: Antibacterial activity against Pseudomonas aeruginosa ATCC 15442 by microbroth dilution method; assay type: functional, organism-based
Staphylococcus aureus [2] = assay: Antibacterial activity against methicillin-resistant Staphylococcus aureus ATCC BAA-41 by microbroth dilution method; assay type: functional, organism-based
HCT-116 [3] = assay: Cytotoxicity against human HCT116 cells assessed as reduction in cell viability by MTT assay; assay type: functional, cell-based
Staphylococcus aureus [4] = assay: Antibacterial activity against Staphylococcus aureus ATCC 25923 by microbroth dilution method; assay type: functional, organism-based
[5] = Stability of compound in methanol; assay type: physicochemical
[6] = Antioxidant activity assessed as DPPH radical scavenging activity at > 50 uM and measure every 10 mins for 30 mins subsequently measured every 30 mins for 4 hrs by spectrophotometric method; assay type: functional
Staphylococcus aureus [7] = assay: Antibacterial activity against multi-resistant Staphylococcus aureus ATCC BAA-44 by microbroth dilution method; assay type: functional, organism-based
[8] = Metal chelating activity of the compound assessed as Fe2+-compound complex formation by measuring absorbance at > 50 uM in presence of ferrozine by spectrophotometric method
HCT-116 [9] = assay: Cytotoxicity against human HCT116 cells assessed as assessed as growth inhibition at 200 uM by MTT assay relative to control; assay type: functional; details: read-out: GI
Staphylococcus aureus [10] = assay: Antibacterial activity against methicillin-resistant Staphylococcus aureus ATCC BAA-41 assessed as growth inhibition at 0.125 mg/m by microbroth dilution method relative to control; assay type: functional
Pseudomonas aeruginosa [11] = assay: Antibacterial activity against Pseudomonas aeruginosa ATCC 15442 assessed as growth inhibition at 0.125 mg/ml by microbroth dilution method relative to control; assay type: functional; details: read-out: GI
Staphylococcus aureus [12] = assay: Antibacterial activity against Staphylococcus aureus ATCC 25923 assessed as growth inhibition at 0.125 mg/m by microbroth dilution method relative to control; assay type: functional

SMILES	Activity [6]	Activity (Pseudomonas aeruginosa [1])	Activity (Staphylococcus aureus [7])	Activity (Staphylococcus aureus [2])	Activity (HCT-116 [3])	Activity (Staphylococcus aureus [4])	Activity [8]	further results
C=C[C@]1(C)C=C2C(=O)[C@]3(O)OC(=O)[C@@]4(CCCC(C)(C)[C@@H]43)[C@H]2CC1								IC50 (Pseudomonas aeruginosa [1]): > 100 µM; IC50 (Staphylococcus aureus [2]): 77.8 µM; IC50 (HCT-116 [3]): 32.7 µM; IC50 (Staphylococcus aureus [4]): 71.6 µM; Stability [5]: Unstable
C=C[C@]1(C)C=C2C(=O)[C@@]3(O)OC(=O)[C@@]4(CCCC(C)(C)[C@H]34)[C@@]2(O)CC1 [SPHAEROPSIDIN A]								IC50 (Pseudomonas aeruginosa [1]): > 100 µM; IC50 (Staphylococcus aureus [2]): 35.3 µM; IC50 (HCT-116 [3]): 4.9 µM; IC50 (Staphylococcus aureus [4]): 32.6 µM; Stability [5]: Stable
CC(=O)Cc1cc(O)cc(O)c1CC(C)C(=O)C(C)C(=O)/C(C)=C/C(C)=C/C(C)C(C)O (configuration not stated)	inactive	inactive	inactive	inactive	inactive	inactive	inactive	
COc1cc(O)cc(CC(C)=O)c1C[C@@H](C)C(=O)[C@H](C)C(=O)/C(C)=C/C(C)=C/[C@H](C)[C@H](C)O	inactive	inactive	inactive	inactive	inactive	inactive	inactive	
COc1cc([C@@H]2c3cc4c(cc3[C@@H](O[C@@H]3O[C@@H]5CO[C@@H](C)O[C@H]5[C@H](O)[C@H]3O)[C@H]3COC(=O)[C@H]23)OCO4)cc(OC)c1O [ETOPOSIDE]								inhibition of growth at 200 µM (HCT-116 [9]): 82.8%
CN[C@H](CC(C)C)C(=O)N[C@H]1C(=O)N[C@@H](CC(N)=O)C(=O)N[C@H]2C(=O)N[C@H]3C(=O)N[C@H](C(=O)N[C@H](C(=O)O)c4cc(O)cc(O)c4-c4cc3ccc4O)[C@H](O)c3ccc(c(Cl)c3)Oc3cc2cc(c3O[C@@H]2O[C@H](CO)[C@@H](O)[C@H](O)[C@H]2O[C@H]2C[C@](C)(N)[C@H](O)[C@H](C)O2)Oc2ccc(cc2Cl)[C@H]1O [VANCOMYCIN]								growth inhibition (GI) (Staphylococcus aureus [10]): 100%
CC(=O)Cc1cc(O)cc2c1CC(C)C(O)(C(C)C(=O)/C(C)=C/C(C)=C/C(C)C(C)O)O2 (configuration not stated)	inactive	inactive	inactive	inactive	inactive	inactive	inactive	
NC[C@H]1O[C@H](O[C@H]2[C@H](O)[C@@H](O[C@H]3O[C@H](CO)[C@@H](O)[C@H](N)[C@H]3O)[C@H](N)C[C@@H]2N)[C@H](O)[C@@H](O)[C@@H]1O [KANAMYCIN]								inhibition of growth at 125 µg/mL (Pseudomonas aeruginosa [11]): 100%; growth inhibition (GI) (Staphylococcus aureus [12]): 100%
COc1cc(O)cc(CC(C)=O)c1C[C@@H](C)C(=O)[C@@H](C)C(=O)/C(C)=C/C(C)=C/[C@H](C)[C@H](C)O	inactive	inactive	inactive	inactive	inactive	inactive	inactive	
